Experiments:
[1] = tested on: MCF7 cells; experiment: Cellular proliferation/cytotoxicity assay (Alamar Blue), MCF7; details: Homo sapiens, MCF7, 48 h, read-out: Anti-proliferative/cytotoxic activity: IC50 MCF7
Procedure: The anti-proliferative activity of the compounds as described herein, is evaluated using MCF7 and MDA-MB-468 (ATCC HTB-22 and HTB-132) cell lines and the Alamar Blue (Resazurin) cell viability assay (O'Brien et al. Eur J Biochem 267, 5421-5426, 2000). Resazurin is reduced to the fluorescent resorufin by cellular dehydrogenase activity, correlating with viable, proliferating cells. Test compounds are dissolved as 10 mM solutions in DMSO and subsequently diluted. MCF7 or MDA-MB-434 cells were seeded into 96 well flat bottom plates at a density of 10000 cells/well (MCF7) or 5000 cells/well (MDA-MB-468) in a volume of 200 μl/well. 24 hours after seeding, 1 μl each of the compound dilutions are added into each well of the 96 well plates. Each compound dilution is tested as at least as duplicates. Wells containing untreated control cells were filled with 200 μl DMEM containing 0.5% v:v DMSO. The cells are then incubated with the substances for 48 hours at 37° C. in a humidified atmosphere containing 5% carbon dioxide. To determine cell viability, 20 μl of a Resazurin solution (Sigma; 90 mg/l) are added. After 4 hours incubation at 37° C. the fluorescence is measured at an extinction of 544 nm and an emission of 590 nm (Wallac Victor2; Perkin Elmer, USA). For the calculation of the cell viability the emission value from untreated cells is set as 100% viability and the emission rates of treated cells are set in relation to the values of untreated cells. Viabilities are expressed as % values. The corresponding IC50 values of the compounds for cytotoxic activity are determined from the concentration-effect curves by means of non-linear regression. The analysis of the data is performed using a biostatistical program (GraphPad Prism, USA).

[2] = target: T1, GST-ΔPH-Akt1 (Homo sapiens, UniProt P31749); experiment: Biochemical ΔPH Akt1 assay (flashplate, 33P incorporation into histone 2B); details: 100 nM ATP, histone 2B substrate; read-out: ΔPHAkt1 inhibition: IC50
T1 construct: named GST-deltaPH-Akt1; 107-480aa; cloned in the pAcGl vector; GST (N); made in house; host or cells: SF9 insect cells (baculovirus vector pAcG1), co-expressed with PDK1
Method in brief: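 The enzyme was GST-fused human Akt1 lacking the PH domain (aa 107–480), co-expressed with PDK1 in Sf9 cells, at 100 ng/well, with 100 ng/well histone 2B substrate and 100 nM ATP including 33P-ATP. 33P incorporation was counted on scintillant-coated flashplates.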

[3] = tested on: phosphorylated Akt1 (Ser473) in MCF7 cells; experiment: Cellular PI3K/Akt pathway assay (pAkt-ELISA); format: cell-based; details: Homo sapiens, β-Heregulin stimulation, 48 h, read-out: Akt pathway inhibition (pAkt-ELISA): IC50
Procedure: In order to study the cellular activity of the compounds according to the invention, an ELISA-based assay has been established. The assay is based on a Sandwich ELISA kit (PathScan™ Phospho-Akt1 (Ser473); Cell Signaling, USA; #7160).
The assay detects endogenous levels of phosphorylated Akt1 protein. A phospho-Akt (Ser473) antibody (Cell Signaling, USA; #9271) has been coated onto the microwells. After incubation with cell lysates, the phosphorylated Akt protein is captured by the coated antibody. Following extensive washing, Akt1 monoclonal antibody (Cell Signaling, USA; #2967) is added to detect the captured phospho-Akt1 protein. HRP-linked anti-mouse antibody (Cell Signaling, USA; #7076) is then used to recognize the bound detection antibody. HRP substrate (=TMB; Cell Signaling, USA; #7160) is added to develop colour. The magnitude of optical density for this developed color is proportional to the quantity of phosphorylated Akt1 protein.
MCF7 cells (ATCC HTB-22) are seeded into 96 well fate bottom plates at a density of 10000 cells/well. 24 hours after seeding the cells are starved using estrogen-free medium (IMEM including 0.1% charcoal treated FCS). […] To stimulate Akt phosphorylation, β-Heregulin (20 ng/ml) is added in parallel to the compounds. Wells containing unstimulated control cells (no β-Heregulin stimulation) are incubated with or without the diluted compound. Wells containing untreated control cells (no compound) are filled with medium containing 0.5% v:v DMSO and are with P-Heregulin or are not stimulated.
Cells are harvested under nondenaturating conditions and lysed with brief sonification in 1× cell lyses buffer (20 mM Tris (pH7.5), 150 mM NaCl, 1 mM ethylene diaminetetraacetate (EDTA), 1 mM ethylene glycolbis-(2-aminoethyl)-N,N,N′,N′-tetraacetic acid (EGTA), 1% Triton X-100, 2.5 mM sodium pyrophosphate, 1 mM β-glycerolphosphate, 1 mM Na3VO4, 1 μg/ml leupeptin). The lysate is microcentrifuged for 10 minutes at 4° C. and the supernatant is transferred to a new tube. 100 μl of sample diluent (0.1% tween-20, 0.1% sodium azide in 20× PBS) are added to a microcentrifuge tube and 100 μl of cell lysate are transferred into the tube and vortexed. 100 μl of each diluted cell lysate are added to the appropriate well (phospho-Akt (Ser473) antibody coated microwells; Cell Signaling, USA; #7160) and incubated overnight at 4° C. The plates are washed 4 times with 1× wash buffer (1% tween-20, 0.33% thymol, in 20×PBS). Then 100 μl of detection antibody (Akt1 (2H10) monoclonal detection antibody; Cell Signaling, USA; #2967) are added to each well and incubated for 1 h at 37° C. The washing procedure is repeated between each step. […] The absorbance is read at 450 nm (Wallac Victor2; Perkin Elmer, USA) within 30 minutes after adding STOP solution. […]

T1 sequence (P31749 107-480, stated change not applied): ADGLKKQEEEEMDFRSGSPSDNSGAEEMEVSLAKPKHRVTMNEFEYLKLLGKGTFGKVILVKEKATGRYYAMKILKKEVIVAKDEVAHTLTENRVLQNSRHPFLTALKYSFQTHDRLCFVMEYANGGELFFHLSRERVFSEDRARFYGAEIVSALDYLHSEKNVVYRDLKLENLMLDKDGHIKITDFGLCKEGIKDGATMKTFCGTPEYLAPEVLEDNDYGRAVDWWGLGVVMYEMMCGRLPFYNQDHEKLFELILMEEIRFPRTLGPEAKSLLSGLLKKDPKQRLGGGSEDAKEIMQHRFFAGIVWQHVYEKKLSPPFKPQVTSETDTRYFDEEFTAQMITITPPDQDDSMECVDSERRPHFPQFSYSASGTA

Row | Compound | IC50 [1] | IC50 [2] | IC50 [3]
1 | NCCCC(=O)Nc1ccc(Nc2nc(-c3cccc4c3oc3ccccc34)cc3ccnn23)cc1 [Example 24, 4-Amino-N-[4-(5-dibenzofuran-4-yl-pyrazolo[1,5-c]pyrimidin-7-ylamino)-phenyl]-butyramide] | ≤ 16.9 µM | ≤ 1.75 µM | ≤ 6 µM
2 | COc1cccc(-c2ccc(-c3cc4ccnn4c(Nc4ccc(NC(=O)c5ccc(CN)cc5)cc4)n3)cc2)c1 [Example 59, 4-Aminomethyl-N-{4-[5-(3′-methoxy-biphenyl-4-yl)-pyrazolo[1,5-c]pyrimidin-7-ylamino]-phenyl}-benzamide] | ≤ 16.9 µM | ≤ 1.75 µM | ≤ 6 µM
3 | O=C(Nc1cccc(Nc2nc(-c3cccc4c3oc3ccccc34)cc3ccnn23)c1)c1ccc2c(c1)CCNC2 [Example 63, 1,2,3,4-Tetrahydro-isoquinoline-6-carboxylic acid [3-(5-dibenzofuran-4-yl-pyrazolo[1,5-c]pyrimidin-7-ylamino)-phenyl]-amide] | ≤ 16.9 µM | ≤ 1.75 µM | ≤ 6 µM
4 | COc1cccc(-c2ccc(-c3cc4c(Br)cnn4c(Nc4ccc(NC(=O)c5ccc(CN)cc5)cc4)n3)cc2)c1 [Example 87, 4-Aminomethyl-N-{4-[3-bromo-5-(3′-methoxy-biphenyl-4-yl)-pyrazolo[1,5-c]pyrimidin-7-ylamino]-phenyl}-benzamide] | ≤ 16.9 µM | ≤ 1.75 µM | ≤ 6 µM
